# Data from ChEMBL document CHEMBL4402520, “Synthetic routes and structure-activity relationships (SAR) of anti-HIV agents: A key review” (Eur J Med Chem, 2019).
# pEC50, pIC50: −log10 of the molar value.
# Tests used:
# [1] = system: Human immunodeficiency virus 1; assay: Antiviral activity against HIV1 3B infected in human C8166 cells; assay type: functional, organism-based
# [2] = Selectivity index, ratio of CC50 for human C8166 cells to EC50 for HIV1 3B infected in human C8166 cells; assay type: toxicity, cell-based; conditions: read-out: Selectivity Index
# [3] = system: Human immunodeficiency virus 2; assay: Antiviral activity against HIV2 ROD after 48 hrs […]; assay type: functional, organism-based; conditions: Human immunodeficiency virus 2, ROD
# [4] = system: Human immunodeficiency virus 1; assay: Antiviral activity against HIV1 3B after 48 hrs […]; assay type: functional, organism-based; conditions: Human immunodeficiency virus 1, 3B
# [5] = Inhibition of HIV reverse transcriptase; parameters: species or system Human immunodeficiency virus
# [6] = molecular target: T1, Human immunodeficiency virus type 1 reverse transcriptase (Human immunodeficiency virus 1, UniProt Q72547); assay: Inhibition of HIV-1 reverse transcriptase after 1 hr by ELISA
# C8166 = assay: Cytotoxicity against human C8166 cells assessed as reduction in cell viability; assay type: functional, cell-based
# [7] = system: Human immunodeficiency virus 1; assay: Antiviral activity against HIV1 3B infected in human MT4 cells; assay type: functional, organism-based; conditions: Human immunodeficiency virus 1, 3B
# [8] = system: Human immunodeficiency virus 1; assay: Antiviral activity against HIV1; assay type: functional, organism-based
# [9] = system: Human immunodeficiency virus; assay: Antiviral activity against HIV; assay type: functional, organism-based; conditions: Human immunodeficiency virus 1
# HeLa = assay: Cytotoxicity against human HeLa cells expressing CD4-LTR-beta-gal assessed as reduction in cell viability; assay type: functional
# [10] = system: Human immunodeficiency virus; assay: Antiviral activity against HIV infected in human HeLa cells expressing CD4-LTR-beta-gal; assay type: functional, organism-based; conditions: Human immunodeficiency virus 1, HeLa
# TZM [11] = assay: Cytotoxicity against human TZM-bl cells assessed as reduction in cell viability after 4 hrs by MTT assay; assay type: functional
# [12] = system: Human immunodeficiency virus 1; assay: Antiviral activity against wild type HIV1 3B infected in human TZM-bl cells assessed as viral infection at 50 ug/ml after 1 hr relative to control; assay type: functional; conditions: Human immunodeficiency virus 1, 3B
# [13] = Selectivity index, ratio of CC50 for human TZM-bl cells to EC50 for wild type HIV1 3B infected in human TZM-bl cells; assay type: toxicity, cell-based; conditions: read-out: Selectivity Index
# TZM [14] = assay: Cytotoxicity against human TZM-bl cells; assay type: functional
# [15] = system: Human immunodeficiency virus 1; assay: Antiviral activity against wild type HIV1 3B infected in human TZM-bl cells after 4 days by ELISA; assay type: functional, organism-based; conditions: Human immunodeficiency virus 1, 3B, 96 h
# [16] = system: Human immunodeficiency virus 1; assay: Antiviral activity against wild type HIV1 3B infected in human MT4 cells using [3H]dGTP by radio-labelled binding assay; assay type: functional, organism-based; conditions: Human immunodeficiency virus 1, 3B
# [17] = system: Human immunodeficiency virus 1; assay: Antiviral activity against HIV1 3B; assay type: functional, organism-based; conditions: Human immunodeficiency virus 1, 3B
# [18] = system: Human immunodeficiency virus 2; assay: Antiviral activity against HIV2 ROD; assay type: functional, organism-based; conditions: Human immunodeficiency virus 2, ROD
# [19] = system: Human immunodeficiency virus 1; assay: Antiviral activity against wild type HIV1 3B infected in human TZM-bl cells; assay type: functional, organism-based; conditions: Human immunodeficiency virus 1, 3B
# [20] = Inhibition of HIV-2 ROD9 integrase Y143C mutant; parameters: species or system Human immunodeficiency virus 2
# [21] = Inhibition of HIV-2 ROD9 integrase G140S/Q148R double mutant; parameters: species or system Human immunodeficiency virus 2
# [22] = molecular target: T2, Human immunodeficiency virus type 2 integrase (Human immunodeficiency virus 2, UniProt P89582); assay: Inhibition of wild type HIV-2 ROD9 integrase
# T2 sequence (P89582 whole entry): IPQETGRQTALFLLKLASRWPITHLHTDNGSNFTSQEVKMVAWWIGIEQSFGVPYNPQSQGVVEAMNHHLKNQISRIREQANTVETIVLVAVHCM
# [23] = Inhibition of HIV-2 ROD9 integrase Q148H mutant; parameters: species or system Human immunodeficiency virus 2
# [24] = Inhibition of HIV-2 ROD9 integrase T97A/N155H double mutant; parameters: species or system Human immunodeficiency virus 2
# [25] = Inhibition of HIV-2 ROD9 integrase E92Q mutant; parameters: species or system Human immunodeficiency virus 2
# [26] = Inhibition of HIV-2 ROD9 integrase E92Q/N155H double mutant; parameters: species or system Human immunodeficiency virus 2
# [27] = Inhibition of HIV-2 ROD9 integrase E92Q/Y143C double mutant; parameters: species or system Human immunodeficiency virus 2
# [28] = Inhibition of HIV-2 ROD9 integrase Q148R mutant; parameters: species or system Human immunodeficiency virus 2
# [29] = Inhibition of HIV-2 ROD9 integrase T97A/Y143C double mutant; parameters: species or system Human immunodeficiency virus 2
# [30] = Inhibition of HIV-2 ROD9 integrase G140S mutant; parameters: species or system Human immunodeficiency virus 2
# [31] = Inhibition of HIV-2 ROD9 integrase N155H mutant; parameters: species or system Human immunodeficiency virus 2
# [32] = Inhibition of HIV-2 ROD9 integrase T97A mutant; parameters: species or system Human immunodeficiency virus 2
# [33] = system: Human immunodeficiency virus 1; assay: Antiviral activity against wild type HIV1; assay type: functional, organism-based
# [34] = molecular target: T1, Human immunodeficiency virus type 1 reverse transcriptase; assay: Inhibition of wild type HIV-1 reverse transcriptase
# [35] = Human immunodeficiency virus 1, 3B, C8166
smiles,measurement,setting,value
CC(C)c1c(CC2CCCCC2)nc(SCc2ccccc2)[nH]c1=O,pEC50,[1]; [35],10.60
same,selectivity ratio,[2],691 to 6.32e+06
CCc1c(CC2CCCCC2)nc(SCC(=O)c2ccccc2)[nH]c1=O,pEC50,[1]; [35],10.92
same,selectivity ratio,[2],6.32e+06
O=C(CSC1[Se]N=NC1c1ccc(Cl)c(Cl)c1)Nc1ccccc1Br (centres undefined),pEC50,[3],< 4.63
same,pEC50,[4],< 4.63
Cc1ccc(NC(=O)CSC2[Se]N=NC2c2ccc(Cl)c(Cl)c2)c([N+](=O)[O-])c1 (centres undefined),pEC50,[3],< 4.58
same,pEC50,[4],5.27
CC(C)c1c(CC2CCCCC2)nc(SCC(=O)c2ccccc2)[nH]c1=O,pEC50,[1],7.00 to 10.92
same,selectivity ratio,[2],691 to 6.32e+06
O=C(CN(Cc1ccccc1)c1ccc(Cl)cc1)N1CCN(c2ccc([N+](=O)[O-])cc2)CC1,pIC50,[5],4.85
COc1ccc2c(c1)CCCN2CCC(=O)N1CCN(c2ccccc2)CC1,pIC50,[6],4.62
same,selectivity ratio,[2],5.9
same,IC50,C8166,83.2 µg/mL
Cc1cc(C)cc(S(=O)(=O)c2c(C(=O)NCc3ccncc3)[nH]c3ccc(Cl)cc23)c1,pEC50,[7],8.70
CC(C)(C)OC(=O)n1ccc2ccc(-c3ccc4ccn(Cc5cccc(C(=O)O)c5)c4c3)cc21,pIC50,[8],6.10
Cc1cc(C)cc(Cn2c(=O)cc(N)n(Cc3ccncc3)c2=O)c1,pEC50,[9],7.52
O=C(CSC1[Se]N=NC1c1ccc(Cl)c(Cl)c1)Nc1ccccc1Cl (centres undefined),pEC50,[3],< 4.63
same,pEC50,[4],< 4.63
O=C(O)/C(O)=C/C(=O)c1cn(Cc2ccc(F)cc2)c2cc(N3CCN(CCCCl)CC3)ccc2c1=O,CC50,HeLa,> 50 µM
same,pIC50,[10],7.30
NC1=CNC(=O)/C1=N/Nc1cccc(Cl)c1,Activity,TZM [11],52%
same,inhibition at 50 µg/mL,[12],93%
COc1ccccc1N1CCN(C(=O)CN(Cc2ccccc2)c2ccc(Cl)cc2)CC1,pIC50,[5],4.79
O=C1OC(c2ccccc2Cl)C(Cl)c2ccccc21 (centres undefined),selectivity ratio,[13],11.1
same,CC50,TZM [14],136 µM
same,pEC50,[15],4.91
NC1=CNC(=O)/C1=N/Nc1ccc(Br)cc1,Activity,TZM [11],40%
same,inhibition at 50 µg/mL,[12],98%
Cc1ccccc1NC(=O)CSC1[Se]N=NC1c1ccc(Cl)c(Cl)c1 (centres undefined),pEC50,[3],< 4.65
same,pEC50,[4],5.25
Cc1cccc(N2C(=O)CSC2c2c(F)cccc2Cl)n1 (centres undefined),pIC50,[16],7.28
COc1ccc(N2CCN(C(=O)CN(Cc3ccccc3)c3ccc(Cl)cc3)CC2)cc1,pIC50,[5],4.11
O=C(N[C@H]1C(=O)Nc2ccccc2C2CCCN21)OCc1ccccc1 (some centres undefined),pEC50,[8],6.07
Cn1cc(C(=O)O)c(=O)c2ccc(N3CCN(c4nccs4)CC3)nc21,EC50,[17],3.15 µg/mL
same,EC50,[18],0.922 µg/mL
O=c1[nH]c(=O)n([C@H]2C[C@H](O)[C@@H](CO)O2)cc1C#CCOc1ccc(OCc2ccccc2)cc1,pIC50,[8],5.18
O=C(CC1(O)C(=O)Nc2ccc(Cl)cc21)c1ccccc1Cl (centres undefined),pIC50,[1]; [35],6.12
O=C(CN(Cc1ccccc1)c1ccc(Cl)cc1)N1CCN(c2cccc(Cl)c2Cl)CC1,pIC50,[5],4.91
CC1OC(=O)c2ccccc2C1(Cl)c1ccc(C#Cc2ccccc2)cc1 (centres undefined),selectivity ratio,[13],0.9
same,CC50,TZM [14],215 µM
same,pEC50,[15],3.62
Cn1cc(C(=O)O)c(=O)c2ccc(N3CCN(c4cccc(C(F)(F)F)c4)CC3)nc21,EC50,[17],> 0.41 µg/mL
same,EC50,[18],> 0.41 µg/mL
COc1ccc2c(c1)CCCN2CCC(=O)N1CCN(c2ccccc2C)CC1,pIC50,[6],4.90
same,selectivity ratio,[2],24.2
same,IC50,C8166,114 µg/mL
CC(C)(NC(=O)OCc1ccccc1)c1cc(O)c(O)c(C(=O)NCc2ccccc2Cl)c1,pEC50,[8],6.85
CCOC(=O)C(N)(c1c[nH]c2cccc(C(=O)OC)c12)C(F)(F)F (centres undefined),pEC50,[19],7.22
same,CC50,TZM [14],110 µM
C[C@@H]1CCO[C@H]2Cn3cc(C(=O)NCc4ccc(F)cc4F)c(=O)c(O)c3C(=O)N12 [DOLUTEGRAVIR],pEC50,[20],8.11
same,pEC50,[21],6.97
same,pEC50,[22],8.64
same,pEC50,[23],8.46
same,pEC50,[24],7.57
same,pEC50,[25],8.11
same,pEC50,[26],7.60
same,pEC50,[27],7.82
same,pEC50,[28],8.24
same,pEC50,[29],< 5.00
same,pEC50,[30],8.49
same,pEC50,[31],8.30
same,pEC50,[32],8.49
COC(=O)C(N)(c1c[nH]c2ccc(F)cc12)C(F)(F)F (centres undefined),pEC50,[19],7.35
same,CC50,TZM [14],49.3 µM
Cn1cc(C(=O)O)c(=O)c2ccc(N3CCN(c4nc5ccccc5s4)CC3)nc21,EC50,[17],0.03 µg/mL
same,EC50,[18],0.02 µg/mL
NC1=CNC(=O)/C1=N/Nc1ccc([N+](=O)[O-])cc1,Activity,TZM [11],80%
same,inhibition at 50 µg/mL,[12],91%
Cc1ccc(NC(=O)CSC2[Se]N=NC2c2ccc(Cl)c(Cl)c2)cc1 (centres undefined),pEC50,[3],< 4.88
same,pEC50,[4],5.18
COc1ccc(CNC(=O)c2cc(C(C)(C)NC(=O)OCc3ccccc3)cc(O)c2O)cc1,pEC50,[8],6.82
COc1ccccc1C(=O)CC1(O)C(=O)Nc2ccc(Cl)cc21 (centres undefined),pIC50,[6],6.57
Cc1cn([C@H]2C[C@H](N=[N+]=[N-])[C@@H](CO)O2)c(=O)[nH]c1=O [ZIDOVUDINE],IC50,C8166,1570 µg/mL
CCCC1OC(=O)c2ccccc2C1(Cl)c1ccc(F)cc1 (centres undefined),selectivity ratio,[13],0.8
same,CC50,TZM [14],251 µM
same,pEC50,[15],3.50
CCC1OC(=O)c2ccccc2C1(Cl)c1ccc(F)cc1 (centres undefined),selectivity ratio,[13],2.1
same,CC50,TZM [14],263 µM
same,pEC50,[15],3.90
O=C(CN(Cc1ccccc1)c1ccc(Cl)cc1)N1CCN(C(c2ccccc2)c2ccccc2)CC1,pIC50,[5],< 4.00
N#Cc1ccc(Nc2nccc(Oc3ccccc3F)n2)cc1,pEC50,[33],8.24
O=c1[nH]c(=O)n([C@H]2C[C@H](O)[C@@H](CO)O2)cc1CCCOc1ccc(OCc2ccccc2)cc1,pIC50,[8],5.66
Cn1cc(C(=O)O)c(=O)c2ccc(N3CCN(c4ccccn4)CC3)nc21,EC50,[17],0.62 µg/mL
same,EC50,[18],0.55 µg/mL
CC(=O)c1ccc(NC(=O)CSC2[Se]N=NC2c2ccc(Cl)c(Cl)c2)c(Br)c1 (centres undefined),pEC50,[3],< 4.72
same,pEC50,[4],5.61
Cc1cccc(N2C(=O)CSC2c2c(F)cccc2F)n1 (centres undefined),pIC50,[16],7.09
Cc1cccc(N2C(=O)CSC2c2c(Cl)cccc2Cl)n1 (centres undefined),pIC50,[16],7.36
O=C(CSC1[Se]N=NC1c1ccc(Cl)c(Cl)c1)Nc1ccccc1F (centres undefined),pEC50,[3],< 4.57
same,pEC50,[4],< 4.57
Cn1ccc2c1S(=O)(=O)c1ccccc1NC2=O,pEC50,[8],4.85
COC(=O)CCCC=C(c1cc(Cl)c(OC)c(C(=O)SC)c1)c1cc(Cl)c(OC)c(C(=O)SC)c1,pEC50,[34],5.80
CC1OC(=O)c2ccccc2C1(Cl)c1ccccc1 (centres undefined),selectivity ratio,[13],10
same,CC50,TZM [14],293 µM
same,pEC50,[15],4.53
COc1ccc2c(c1)CCCN2CCC(=O)N1CCN(c2cccc(Cl)c2)CC1,pIC50,[6],4.73
same,selectivity ratio,[2],5.3
same,IC50,C8166,97.5 µg/mL
